Laboratory results from patent US5976848A, “Method of identifying potential fungicides using dihydroorotate dehydrogenase inhibition assay” (priority 1992, dated 1999).
Values after ≈ are worked out from the molar mass of the structure shown. “Also recorded” adds a separate entry of the source.

How the values were obtained:
Botrytis cinerea = experiment: greenhouse tests against Botrytis cinerea; format: in vivo
Penicillium digitalum = experiment: greenhouse tests against Penicillium digitalum; format: in vivo
Aspergillus nidulans [1] = experiment: growth inhibition of Aspergillus nidulans; format: cell-based
Cephalosiorium = experiment: sensitivity of Cephalosporium to CCFQ; format: cell-based
Neurospora = experiment: sensitivity of Neurospora to CCFQ; format: cell-based
DHOD = DHOD in vitro tests; format: biochemical
[2] = biological target: T1, DHOD produced by mutant Aspergillus nidulans strains resistant to CCFQ (Aspergillus nidulans, UniProt G5EB61); experiment: inhibition of DHOD produced by CCFQ-resistant mutant strains; format: biochemical; conditions: DHOD from resistant mutant A. nidulans
T1 construct: V200E (preferred, MNNG, FGSC612) or A115V (EMS, FGSC610)
T1 sequence (G5EB61 1-520): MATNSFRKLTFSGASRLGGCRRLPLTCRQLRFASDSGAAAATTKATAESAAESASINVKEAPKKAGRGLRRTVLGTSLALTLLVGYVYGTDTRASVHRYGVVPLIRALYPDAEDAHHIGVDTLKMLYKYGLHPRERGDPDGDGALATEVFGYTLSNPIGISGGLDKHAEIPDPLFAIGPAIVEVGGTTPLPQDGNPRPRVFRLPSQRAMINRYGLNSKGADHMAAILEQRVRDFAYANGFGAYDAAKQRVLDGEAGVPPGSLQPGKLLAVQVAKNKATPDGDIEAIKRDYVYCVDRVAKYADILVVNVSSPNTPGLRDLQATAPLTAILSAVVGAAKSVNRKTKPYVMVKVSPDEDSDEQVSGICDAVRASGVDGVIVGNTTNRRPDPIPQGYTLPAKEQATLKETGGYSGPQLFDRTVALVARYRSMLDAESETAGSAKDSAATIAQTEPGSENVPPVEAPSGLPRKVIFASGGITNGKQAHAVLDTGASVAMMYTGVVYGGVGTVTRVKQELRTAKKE

Aspergillus nidulans [3] = experiment: physiological and biochemical responses of Aspergillus nidulans treated with CCFQ; format: cell-based
Excerpt: The physiological and biochemical responses caused by the experimental fungicide CCFQ are not characteristic of known modes of action. […] It causes an unusual effect on synthesis of nucleic acids in that incorporation of radiolabelled precursors is stimulated by treatment with CCFQ. […] Some media supplements overcame growth inhibition by CCFQ. […] All these observations are consistent with the primary target of CCFQ being an electron-transferring enzyme in the pyrimidine biosynthetic pathway. […] This is a novel fungicidal mode of action, and its discovery opens the opportunity to detect novel chemical compounds that attack the same target.

[4] = treatment of Aspergillus nidulans

Fc1ccc(Oc2ccnc3c(Cl)cccc23)c(Cl)c1 [CCFQ, 8-chloro-4-(2-chloro-4-fluorophenoxy)quinoline]
inhibition of Botrytis cinerea (Botrytis cinerea; 50 μg/ml, greenhouse tests): completely inhibits
inhibition of growth of Botrytis cinerea (Botrytis cinerea; no concentration stated): completely inhibits
inhibition of Penicillium digitalum (Penicillium digitalum; 50 μg/ml, greenhouse tests): completely inhibits
inhibition of growth of Penicillium digitalum (Penicillium digitalum; no concentration stated): completely inhibits
IC50 (Aspergillus nidulans [1]; against Aspergillus nidulans, read-out: IC50 (concentration that inhibits growth by 50%)): 0.15 µg/mL (≈ 0.487 µM)
inhibition of growth of Aspergillus (Aspergillus nidulans [1]; no concentration stated): inhibits the growth
sensitivity to CCFQ / growth inhibition (Cephalosiorium): inhibits the growth; also recorded: sensitive
sensitivity to CCFQ / growth inhibition (Neurospora): inhibits the growth; also recorded: sensitive
sensitivity of DHOD to CCFQ (DHOD): extremely sensitive
inhibition of DHOD of CCFQ-resistant mutant strains [2]: resistant to inhibition
reversal of growth inhibition by media supplements (Aspergillus nidulans [3]; combination of uracil and a free radical scavenger such as α-tocopherol): complete reversal
change in amino acid content (Aspergillus nidulans [3]; [4]): no significant changes
change in lipid composition (Aspergillus nidulans [3]; [4]): no significant changes
change in protein accumulation (Aspergillus nidulans [3]; [4]): no significant changes
change in respiration (Aspergillus nidulans [3]; [4]): no significant changes
effect on cell wall synthesis (Aspergillus nidulans [3]; [4]): perturbs cell wall synthesis in a non-specific manner
incorporation of radiolabelled precursors (synthesis of nucleic acids) (Aspergillus nidulans [3]; [4]): stimulated
